Test results taken from publication PMC3731359 (PLoS ONE, 2013).
“Also recorded” adds a separate entry of the source.

Columns and labels:
cullin-3 = assay: Inhibition of Nedd8 transfer to cullin (cullin neddylation); assay type: biochemical; conditions: 5–200 µM peptide, 0.5 µM NAE, 0.5 µM Ubc12, 1 µM cullin, 1 h, then 5 µM HA-Nedd8, 15 min, Western blot
Text: (§1) The peptides were conjugated to biotin at their N-termini. The Uba3 subunit of NAE formed the thioester conjugate with the peptides. The Western blot was probed with streptavidin conjugated to HRP.

Ubc12 [1] = assay: Inhibition of Nedd8 transfer to Ubc12; assay type: biochemical; conditions: 5–200 µM peptide, 0.5 µM NAE, 0.5 µM Ubc12, 1 µM cullin, 1 h, then 5 µM HA-Nedd8, 15 min, Western blot
Text: as §1

Ubc12 [2] = assay: Western blot: peptide transfer to Ubc12; assay type: biochemical; conditions: 5 µM peptide biotin-conjugated at N-terminus, 1 µM NAE, 1 µM Ubc12, 1 µM cullin, 1 h, room temperature, streptavidin-HRP blot
Procedure: as §1
(§2) Biotin Conjugation of the Peptides
(§3) Heptameric peptides with the C-terminal sequences of wt UB, wt Nedd8, and UB variants from phage selection were ordered from EZBiolab (Carmel, Indiana). The peptides were further purified by HPLC to be more than 95% pure. Peptide pN1 (2 mg, […]) was added to a solution of N-hydroxysuccinimidyl-6′-(biotinamido)-6-hexanamido hexanoate (NHS-LC-LC-biotin, Pierce) (4.4 mg, 7.750 µmol) in 50 mM sodium phosphate buffer (pH 7.0, 300 µL) and DMSO (300 µL). The reaction was allowed to proceed by stirring overnight at room temperature. The reaction mixture was then purified by HPLC with a gradient of 5–85% acetonitrile in 0.1% TFA/water at a flow rate of 10 mL/min over the course of 25 minutes. Biotin was conjugated to the N-terminal amino groups of the peptides pN7 and N26 with the same procedure. The purified biotin-peptide conjugates were lyophilized, and their identities were confirmed via MALDI-TOF mass spectrometry (positive mode): biotin-pN1 (VWLSYGG), calculated: 1256.10 Da (MNa^+), found: 1254.87 Da; biotin-pN7 (VMLFYGG), calculated: 1261.19 Da (MNa^+), found:1260.49 Da; biotin-pN26 (VLALRGG), calculated: 1138.06 Da (MH^+), found:1137.78 Da.
(§4) To assay the transfer of biotin conjugated peptides to NAE, Ubc12 and cullin, 5 µM biotin labeled peptide, 1 µM NAE, 1 µM Ubc12 and 1 µM cullin were incubated with 1 mM ATP, 10 mM MgCl2 and 50 µM DTT in the TBS buffer for 1 hour at room temperature before SDS-PAGE and membrane blotting. The membrane was blocked with 3% BSA in TBS buffer for 1 hour followed by incubation with 3% BSA in TBS buffer containing 1∶10,000 diluted 1 mg/mL streptavidin-horse radish peroxidase conjugate (Pierce) for 1 hour. The membrane was then washed 5 times with TBS-T buffer and 5 times with TBS buffer followed by detection with the ECL luminescent detection kit.

NAE [3] = biological target: T1, NAE (Homo sapiens, UniProt Q13564+Q8TBC4); assay: Inhibition of Nedd8 transfer through the cascade: NAE conjugate; assay type: biochemical; conditions: 5–200 µM peptide, 0.5 µM NAE, 0.5 µM Ubc12, 1 µM cullin, 1 h, then 5 µM HA-Nedd8, 15 min, Western blot
T1 construct: made in house; host or cells: E. coli BL21(DE3)pLysS
T1 sequence (Q8TBC4 22-463 limits assumed): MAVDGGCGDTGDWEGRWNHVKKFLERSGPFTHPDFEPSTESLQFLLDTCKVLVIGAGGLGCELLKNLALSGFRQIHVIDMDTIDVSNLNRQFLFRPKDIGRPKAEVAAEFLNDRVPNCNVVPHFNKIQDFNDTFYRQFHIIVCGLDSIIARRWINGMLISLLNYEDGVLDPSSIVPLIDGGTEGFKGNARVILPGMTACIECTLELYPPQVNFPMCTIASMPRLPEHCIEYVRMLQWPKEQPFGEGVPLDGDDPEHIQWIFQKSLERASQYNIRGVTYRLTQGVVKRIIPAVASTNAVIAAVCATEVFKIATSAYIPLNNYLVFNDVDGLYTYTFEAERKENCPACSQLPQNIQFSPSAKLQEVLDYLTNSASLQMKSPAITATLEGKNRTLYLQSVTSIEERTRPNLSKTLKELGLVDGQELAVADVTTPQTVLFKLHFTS
T1 sequence (Q13564 1-534 partner): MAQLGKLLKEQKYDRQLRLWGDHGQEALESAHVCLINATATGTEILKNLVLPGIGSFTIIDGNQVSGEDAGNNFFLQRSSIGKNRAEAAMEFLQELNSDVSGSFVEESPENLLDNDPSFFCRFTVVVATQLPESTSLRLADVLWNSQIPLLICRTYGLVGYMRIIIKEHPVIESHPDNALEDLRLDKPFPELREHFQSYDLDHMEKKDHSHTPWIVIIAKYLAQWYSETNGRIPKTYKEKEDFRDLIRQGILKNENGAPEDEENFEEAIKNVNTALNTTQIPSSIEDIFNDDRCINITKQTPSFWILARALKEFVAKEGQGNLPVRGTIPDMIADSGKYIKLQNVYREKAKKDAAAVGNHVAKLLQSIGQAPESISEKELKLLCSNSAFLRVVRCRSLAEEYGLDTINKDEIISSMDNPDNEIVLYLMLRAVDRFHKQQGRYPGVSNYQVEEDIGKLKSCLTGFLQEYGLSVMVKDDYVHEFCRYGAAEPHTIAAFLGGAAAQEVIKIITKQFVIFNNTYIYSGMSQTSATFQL
Text: as §1

NAE [4] = biological target: T1, NAE; assay: Western blot: peptide∼NAE thioester conjugate formation; assay type: biochemical; conditions: 5 µM peptide biotin-conjugated at N-terminus, 1 µM NAE, 1 mM ATP, 1 h, room temperature, streptavidin-HRP blot
Procedure: as §1, §2, §3, §4

cullin 3 = assay: Western blot: peptide transfer to cullin 3; assay type: biochemical; conditions: 5 µM peptide biotin-conjugated at N-terminus, 1 µM NAE, 1 µM Ubc12, 1 µM cullin, 1 h, room temperature, streptavidin-HRP blot
Procedure: as §1, §2, §3, §4

NAE [5] = biological target: T1, NAE; assay: ATP/PPi exchange assay (NAE activation kinetics); assay type: biochemical; conditions: for activation by NAE: 50 µM heptameric peptide, 0.5 µM NAE, 30 min, room temperature, versus background with no peptide added; for kcat/Km: Nedd8 mimicking heptameric peptides, 0.1 µM NAE, 10–1000 µM peptide, pH 7.5, room temperature
Text: We used the ATP/PPi exchange assay [28], [29] to measure the kinetics of NAE activation of UB mutants. In this assay, NAE catalyzes the condensation of UB with ATP to form a UB-AMP conjugate coupled to the release of PPi. Externally added PPi labeled with the radioactive isotope ^32P sets the reaction in reverse thus incorporating ^32PPi into ATP. Radioactive ATP formed in the reaction is captured by charcoal and quantified. The rate of ^32PPi exchange into ATP reflects the reactivities of NAE with the UB variants to form UB-AMP intermediates.
The reaction was incubated for 30 min at room temperature and then quenched by the addition of 0.5 mL slurry of charcoal in 2% trichloroacetic acid. After centrifugation, the charcoal pellet was washed 3 times each time with 1 mL 2% trichloroacetic acid, and eventually resuspended in 0.5 mL water and 3.5 mL Ultima Gold LSC-cocktail (Perkin Elmer). The radioactivity bound to charcoal was determined by liquid scintillation counting.
The reaction was incubated at room temperature for 5, 10, 15, 20 and 25 minutes before it was quenched with the addition of 0.5 mL slurry of charcoal in 2% trichloroacetic acid. The radioactivity incorporated into charcoal-bound ATP was measured by liquid scintillation counting. K1/2 and kcat values of the ATP-PPi exchange reaction were calculated by fitting the data to the Michaelis-Menten equation with the data analysis software Origin. To measure peptide activation by NAE, 0.1 µM NAE was used in the reaction with the concentration of the peptides varying from 10 µM to 1000 µM.

[6] = biological target: T2, Nedd8 activating enzyme (NAE), heterodimer of APPBP1 and Uba3 (UniProt Q13564 1-534; Q8TBC4 33-463); assay: cell-based or functional assay
T2 sequence 1: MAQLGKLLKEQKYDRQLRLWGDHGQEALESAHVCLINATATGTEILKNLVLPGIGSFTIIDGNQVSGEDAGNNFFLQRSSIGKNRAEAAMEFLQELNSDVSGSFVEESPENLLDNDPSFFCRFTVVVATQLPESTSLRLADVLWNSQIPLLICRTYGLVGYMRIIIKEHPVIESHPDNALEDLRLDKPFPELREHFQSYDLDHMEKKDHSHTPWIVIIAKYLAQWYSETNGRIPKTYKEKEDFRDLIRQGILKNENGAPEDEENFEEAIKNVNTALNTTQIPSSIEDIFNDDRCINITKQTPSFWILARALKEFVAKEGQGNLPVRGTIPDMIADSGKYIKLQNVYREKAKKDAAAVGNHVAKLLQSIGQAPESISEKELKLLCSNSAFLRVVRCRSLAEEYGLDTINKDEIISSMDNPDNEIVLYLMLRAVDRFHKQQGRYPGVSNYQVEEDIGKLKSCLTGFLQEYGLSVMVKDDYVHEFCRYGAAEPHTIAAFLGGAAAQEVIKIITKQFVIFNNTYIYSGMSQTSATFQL
T2 sequence 2: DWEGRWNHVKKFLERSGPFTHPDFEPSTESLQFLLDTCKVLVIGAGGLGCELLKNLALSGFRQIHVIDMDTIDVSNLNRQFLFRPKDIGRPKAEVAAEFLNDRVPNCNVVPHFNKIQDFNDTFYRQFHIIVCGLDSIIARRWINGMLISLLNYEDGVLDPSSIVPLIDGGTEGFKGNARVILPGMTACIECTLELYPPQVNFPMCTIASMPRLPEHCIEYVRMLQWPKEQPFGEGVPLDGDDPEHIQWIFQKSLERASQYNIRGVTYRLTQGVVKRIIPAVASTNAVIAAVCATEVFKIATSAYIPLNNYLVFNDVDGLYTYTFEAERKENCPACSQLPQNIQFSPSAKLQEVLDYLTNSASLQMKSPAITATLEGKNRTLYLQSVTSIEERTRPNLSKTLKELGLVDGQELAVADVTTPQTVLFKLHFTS

Molecule: VLALRGG [pN26]
- Nedd8 conjugates with cullin after preloading with peptide (cullin-3): did not produce any Nedd8 conjugates with NAE, Ubc12 or cullin
- Nedd8 conjugates with Ubc12 after preloading with peptide (Ubc12 [1]): did not produce any Nedd8 conjugates with NAE, Ubc12 or cullin
- formation of peptide∼Ubc12 conjugates (Ubc12 [2]): strong activity for the formation of peptide∼Ubc12 conjugates
- Nedd8 conjugates with NAE after preloading with peptide (NAE [3]): did not produce any Nedd8 conjugates with NAE, Ubc12 or cullin
- formation of peptide∼NAE thioester conjugates (NAE [4]): can form thioester conjugates with NAE
- transfer of peptide to cullin 3 (cullin 3): can be further transferred to cullin 3
- activation by NAE (NAE [5]): can be activated at a level significantly higher than the background

Molecule: VMLFYGG [pN7, Nedd8-mimicking heptameric peptide VMLFYGG]
- Nedd8 conjugates with cullin after preloading with peptide (cullin-3): did not produce any Nedd8 conjugates with NAE, Ubc12 or cullin
- Nedd8 conjugates with Ubc12 after preloading with peptide (Ubc12 [1]): did not produce any Nedd8 conjugates with NAE, Ubc12 or cullin
- formation of peptide∼Ubc12 conjugates (Ubc12 [2]): only has low activity for transferring to Ubc12
- Nedd8 conjugates with NAE after preloading with peptide (NAE [3]): did not produce any Nedd8 conjugates with NAE, Ubc12 or cullin
- formation of peptide∼NAE thioester conjugates (NAE [4]): can form thioester conjugates with NAE; also recorded: form peptide∼NAE conjugates at a similar level as pN26
- transfer of peptide to cullin 3 (cullin 3): none of them can form peptide-cullin conjugates at a detectable level
- activation by NAE (NAE [5]): can be activated at a level significantly higher than the background
- kcat/Km (NAE [5]): 2670 M⁻¹ s⁻¹

Molecule: VWLSYGG [pN1, Nedd8-mimicking heptameric peptide VWLSYGG]
- Nedd8 conjugates with cullin after preloading with peptide (cullin-3): did not produce any Nedd8 conjugates with NAE, Ubc12 or cullin
- Nedd8 conjugates with Ubc12 after preloading with peptide (Ubc12 [1]): did not produce any Nedd8 conjugates with NAE, Ubc12 or cullin
- formation of peptide∼Ubc12 conjugates (Ubc12 [2]): no observable formation of peptide∼Ubc12 conjugates
- Nedd8 conjugates with NAE after preloading with peptide (NAE [3]): did not produce any Nedd8 conjugates with NAE, Ubc12 or cullin
- formation of peptide∼NAE thioester conjugates (NAE [4]): can form thioester conjugates with NAE; also recorded: form peptide∼NAE conjugates at a similar level as pN26
- transfer of peptide to cullin 3 (cullin 3): none of them can form peptide-cullin conjugates at a detectable level
- activation by NAE (NAE [5]): can be activated at a level significantly higher than the background
- kcat/Km (NAE [5]): 3000 M⁻¹ s⁻¹

Molecule: VWLSYGG [peptide pN1 (70VWLSYGG76)]
- Km (K1/2) of the ATP/PPi exchange reaction catalyzed by NAE [6]: 130 µM
- kcat of the ATP/PPi exchange reaction catalyzed by NAE [6]: 0.4 s⁻¹
- kcat/Km of the ATP/PPi exchange reaction catalyzed by NAE [6]: 3000 M⁻¹ s⁻¹

Molecule: VMLFYGG [peptide pN7 (70VMLFYGG76)]
- Km (K1/2) of the ATP/PPi exchange reaction catalyzed by NAE [6]: 155 µM
- kcat of the ATP/PPi exchange reaction catalyzed by NAE [6]: 0.4 s⁻¹
- kcat/Km of the ATP/PPi exchange reaction catalyzed by NAE [6]: 2670 M⁻¹ s⁻¹

Molecule: VLALRGG [peptide pN26 (70VLALRGG76)]
- kcat of the ATP/PPi exchange reaction catalyzed by NAE [6]: 0.433 s⁻¹
- kcat/Km of the ATP/PPi exchange reaction catalyzed by NAE [6]: 4830 M⁻¹ s⁻¹
